Read-outs that look alike come from different tables or passages of the source.
Assays:
human α1A-adrenoceptor = target: T1, human α1A-adrenoceptor (Homo sapiens, UniProt P35348); experiment: [3H]prazosin whole-cell competition binding, CHO-α1A cells
T1 construct: CHO cells stably expressing either the full‐length human α1A, α1B, or α1D‐adrenoceptor
T1 sequence (P35348 1-466): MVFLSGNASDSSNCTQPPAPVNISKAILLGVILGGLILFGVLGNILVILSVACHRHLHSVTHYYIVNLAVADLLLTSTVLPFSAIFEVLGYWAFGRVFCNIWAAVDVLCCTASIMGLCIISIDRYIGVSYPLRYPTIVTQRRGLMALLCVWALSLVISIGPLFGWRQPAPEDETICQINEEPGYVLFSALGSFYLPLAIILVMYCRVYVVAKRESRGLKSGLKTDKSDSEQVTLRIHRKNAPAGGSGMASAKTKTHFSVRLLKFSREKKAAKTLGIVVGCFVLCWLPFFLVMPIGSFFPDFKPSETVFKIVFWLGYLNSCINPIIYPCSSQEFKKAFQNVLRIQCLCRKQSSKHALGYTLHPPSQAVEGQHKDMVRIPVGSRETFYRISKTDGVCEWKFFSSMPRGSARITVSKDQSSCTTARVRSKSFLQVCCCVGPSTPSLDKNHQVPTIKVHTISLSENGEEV

[1] = target: T2, full-length human α1D-adrenoceptor (Homo sapiens, UniProt P25100); experiment: [3H]prazosin whole-cell competition binding, CHO-α1D cells
T2 sequence (P25100 1-572): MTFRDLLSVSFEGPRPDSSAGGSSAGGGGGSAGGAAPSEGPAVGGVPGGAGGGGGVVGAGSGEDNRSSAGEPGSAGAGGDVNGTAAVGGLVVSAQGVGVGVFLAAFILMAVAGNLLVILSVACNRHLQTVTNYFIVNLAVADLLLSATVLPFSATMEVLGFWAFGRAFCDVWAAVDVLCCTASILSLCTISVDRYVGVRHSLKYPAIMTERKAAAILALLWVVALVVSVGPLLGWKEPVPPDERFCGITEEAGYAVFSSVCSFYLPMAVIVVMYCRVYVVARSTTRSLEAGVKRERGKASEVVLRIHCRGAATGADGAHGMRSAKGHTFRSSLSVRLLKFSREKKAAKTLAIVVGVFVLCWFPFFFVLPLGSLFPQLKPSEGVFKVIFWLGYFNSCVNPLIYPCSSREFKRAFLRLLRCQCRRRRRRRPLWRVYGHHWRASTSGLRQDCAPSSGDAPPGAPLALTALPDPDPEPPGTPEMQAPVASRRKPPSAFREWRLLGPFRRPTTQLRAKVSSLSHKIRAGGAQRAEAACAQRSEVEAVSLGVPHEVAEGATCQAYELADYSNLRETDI

human α1B-adrenoceptor = target: T3, human α1B-adrenoceptor (Homo sapiens, UniProt P35368); experiment: [3H]prazosin whole-cell competition binding, CHO-α1B cells
T3 construct: CHO cells stably expressing either the full‐length human α1A, α1B, or α1D‐adrenoceptor
T3 sequence (P35368 1-520): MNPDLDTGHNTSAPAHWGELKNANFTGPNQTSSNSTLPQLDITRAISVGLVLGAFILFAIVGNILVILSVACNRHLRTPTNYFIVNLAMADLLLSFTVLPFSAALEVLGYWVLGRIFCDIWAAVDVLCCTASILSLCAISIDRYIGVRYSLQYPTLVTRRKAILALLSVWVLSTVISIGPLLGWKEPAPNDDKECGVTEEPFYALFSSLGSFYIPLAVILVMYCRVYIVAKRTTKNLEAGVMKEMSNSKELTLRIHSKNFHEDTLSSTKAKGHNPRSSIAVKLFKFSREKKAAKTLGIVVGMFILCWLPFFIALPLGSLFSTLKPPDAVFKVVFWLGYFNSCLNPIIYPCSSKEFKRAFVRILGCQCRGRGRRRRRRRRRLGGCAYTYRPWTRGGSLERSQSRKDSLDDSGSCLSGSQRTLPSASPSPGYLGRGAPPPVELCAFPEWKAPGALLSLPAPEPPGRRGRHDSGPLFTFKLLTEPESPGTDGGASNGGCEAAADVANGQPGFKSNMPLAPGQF

[2] = Log KD α1D, single-component inhibition curve, given as log KD (negative), mean ± SE mean
[3] = ratio of KD values, higher α1D affinity (site 1 KD)
[4] = ratio, 1 = no selectivity for a subtype over another
[5] = single-component inhibition curve, given as log KD (negative), mean ± SE mean, read-out: Log KD α1B (converted)
[6] = ratio of KD values, higher α1A affinity, 1.0 under vs = none
[7] = ratio of KD values, printed under α1A = higher α1A affinity, 1.0 under vs = none
[8] = single-component inhibition curve, given as log KD (negative), mean ± SE mean
[9] = two-component inhibition curve, proportion of site 1
[10] = selectivity ratio, 1 = no selectivity for a given receptor subtype over another
[11] = log KD from 3H-prazosin whole cell binding, CHO cells, mean ± s.e.mean

For CN(C)CCC=C1c2ccccc2CCc2ccccc21 [Amitriptyline], the “Selectivity ratio α1A vs α1B” value (human α1A-adrenoceptor) was 93 fold, the “Selectivity ratio α1A vs α1D” value (human α1A-adrenoceptor) was 87 fold and the “selectivities α1A vs α1B” value (human α1A-adrenoceptor) was 93. The “selectivity α1A vs α1B” value (human α1A-adrenoceptor) was 93, the Kd (human α1A-adrenoceptor; Log KD α1A, single-component inhibition curve, given as log KD (negative), mean ± SE mean) was 0.00646 µM and the Kd [1, 2] was 0.562 µM. For the same compound, the “Selectivity ratio α1B vs α1D” value [1, 3] was 1.1 fold, the “selectivity α1B vs α1D” value (human α1B-adrenoceptor; [4]) was 1.1 and the Kd (human α1B-adrenoceptor; [5]) was 0.603 µM.
For O=C1c2ccccc2CCC1CNCCc1ccc(O)cc1 (stereo not drawn) [HEAT], the “Selectivity ratio α1A vs α1D” value (human α1A-adrenoceptor; [6]) was 2.9 fold, the “Selectivity ratio α1A vs α1B” value (human α1A-adrenoceptor; [7]) was 3.4 fold and the “Log KD α1A” value (human α1A-adrenoceptor; [8]) was −8.57 ± 0.06. The “Log KD α1D site 1” value ([1]; high-affinity component of two-component curve, control, used for selectivity) was −8.11 ± 0.18, the “Log KD α1D site 2” value ([1]; low-affinity component of two-component curve, control) was −5.15 ± 0.26 and the “% site 1 α1D” value ([1]; percentage of inhibition through first component, control) was 64.1 ± 4.1% site 1. For the same compound, the “% site 1 α1D” value [1, 9] was -8.11 ± 0.18 -5.15 ± 0.26 64.1 ± 4.1% site 1, the “Selectivity ratio α1B vs α1D” value (human α1B-adrenoceptor; ratio of KD values, higher α1B affinity, 1.0 under vs = none) was 1.2 fold and the “Log KD α1B” value (human α1B-adrenoceptor; [8]) was −8.04 ± 0.04.
For COc1ccc(C(CN(C)C)C2(O)CCCCC2)cc1 (stereo not drawn) [Venlafaxime], the “Log KD α1A (apparent)” value (human α1A-adrenoceptor; app: top concentration inhibited most but not all specific binding, curve extrapolated) was −3.69 ± 0.02^app, the “Selectivity ratio α1A vs α1B” value (human α1A-adrenoceptor; [7]) was >4.9 fold and the “selectivity α1A vs 1D” value (human α1A-adrenoceptor; [4]) was 4.9. The “Selectivity ratio α1A vs α1D” value [1, 3] was 4.9 fold, the “Selectivity ratio α1B vs α1D” value [1, 3] was >24 fold and the “Log KD α1D” value [1, 8] was −4.38 ± 0.16. For the same compound, the “Log KD α1B: result in words” value (human α1B-adrenoceptor; no inhibition of [3H]prazosin binding at maximum concentration possible) was “No binding to 1 mmol/L”, the “selectivity α1B vs α1D” value (human α1B-adrenoceptor; [4]) was >24 and the “binding at α1B” value (human α1B-adrenoceptor; result in words in the Log KD α1B column) was “No binding to 1mM”. The “binding at α1B (result in words)” value (human α1B-adrenoceptor; up to the maximum concentration) was “No binding to 1mM”.
For CN1CCc2cccc(Cl)c2CC1 [SKF86466], the Kd (human α1A-adrenoceptor) was 0.871 µM, the “Selectivity ratio α1A vs α1B” value (human α1A-adrenoceptor) was 13 fold and the “Selectivity ratio α1A vs α1D” value (human α1A-adrenoceptor) was 7.9 fold. For the same compound, the “selectivity α1A vs α1B” value (human α1A-adrenoceptor) was 13.5, the Kd [1] was 6.92 µM and the “Selectivity ratio α1B vs α1D” value [1] was 1.7 fold. For the same compound, the Kd (human α1B-adrenoceptor) was 11.7 µM and the “selectivity α1B vs α1D” value (human α1B-adrenoceptor) was 1.7.
COc1cccc2c1CCC[C@H]2CN(C)CCc1ccc2ccoc2c1.CS(=O)(=O)O [A80426] was tested, and the “Selectivity ratio α1A vs α1D” value (human α1A-adrenoceptor; [6]) was 3.1 fold, the “Selectivity ratio α1A vs α1B” value (human α1A-adrenoceptor; [7]) was 3.1 fold and the “selectivity α1A vs 1D” value (human α1A-adrenoceptor; [4]) was 3.1. For the same compound, the “selectivity α1A vs α1B” value (human α1A-adrenoceptor; [4]) was 3.1, the “selectivities α1A vs α1B” value (human α1A-adrenoceptor; [10]) was 3.1 and the “selectivities α1A vs α1D” value (human α1A-adrenoceptor; [10]) was 3.1. For the same compound, the “Log KD α1A” value (human α1A-adrenoceptor; [8]) was −6.57 ± 0.05, the “Selectivity ratio α1B vs α1D” value [1, 3] was 1.0 fold and the “Log KD α1D” value [1, 8] was −6.07 ± 0.07. The “selectivity α1B vs α1D” value (human α1B-adrenoceptor; [4]) was 1.0 and the “Log KD α1B” value (human α1B-adrenoceptor; [8]) was −6.08 ± 0.02.
In the case of COc1ccccc1N1CCN(CC2CN3C(=O)N(C)c4ccccc4C3=N2)CC1 (stereo not drawn) [2-MPMDQ], the “Log KD α1A” value (human α1A-adrenoceptor; [11]) is reported as -9.06 ± 0.07, the “% site 1 α1D” value [1, 9] is reported as 64.0 ± 2.1% and the “Log KD α1B” value (human α1B-adrenoceptor; [11]) is reported as -7.37 ± 0.04.
For CN(C)CC/C=C1\c2ccccc2CSc2ccccc21 [Dosulepin], the “Selectivity ratio α1A vs α1D” value (human α1A-adrenoceptor; [6]) was 34 fold, the “Selectivity ratio α1A vs α1B” value (human α1A-adrenoceptor; [7]) was 68 fold and the Kd (human α1A-adrenoceptor; single-component inhibition curve, given as log KD (negative), mean ± SE mean, read-out: Log KD α1A (converted)) was 0.0776 µM. The Kd [1, 2] was 2.63 µM, the “Selectivity ratio α1B vs α1D” value [1, 3] was 2.0 fold and the “selectivity α1B vs α1D” value (human α1B-adrenoceptor; [4]) was 2.0. For the same compound, the Kd (human α1B-adrenoceptor; [5]) was 5.25 µM.

— publication PMC7327383, “The affinity and selectivity of α‐adrenoceptor antagonists, antidepressants, and antipsychotics for the human α1A, α1B, and α1D‐adrenoceptors” (Pharmacology Research & Perspectives, 2020)
